From PubChem BioAssay (NCI)
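Results reflect a 48-hour exposure of cells in 96-well plates to compound at five concentrations. At the GI50, growth is halved. TGI denotes the concentration required for complete inhibition of growth.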

Columns and labels:
Assay in all cases: NCI anticancer screen, dose series, 48 h
IGROV1 ovarian = test system: IGROV1 ovarian
RXF 393 renal = test system: RXF 393 renal
MCF7 breast = test system: MCF7 breast
SK-OV-3 ovarian = test system: SK-OV-3 ovarian
TK-10 renal = test system: TK-10 renal
PC-3 prostate = test system: PC-3 prostate
SNB-75 CNS = test system: SNB-75 CNS
OVCAR-8 ovarian = test system: OVCAR-8 ovarian
SF-539 CNS = test system: SF-539 CNS
HCC-2998 colon = test system: HCC-2998 colon
UACC-62 melanoma = test system: UACC-62 melanoma
SF-295 CNS = test system: SF-295 CNS
SW-620 colon = test system: SW-620 colon
NCI-H460 lung = test system: NCI-H460 lung
HT29 colon = test system: HT29 colon
OVCAR-4 ovarian = test system: OVCAR-4 ovarian
OVCAR-3 ovarian = test system: OVCAR-3 ovarian
MDA-MB-231 breast = test system: MDA-MB-231 breast
CAKI-1 renal = test system: CAKI-1 renal
OVCAR-5 ovarian = test system: OVCAR-5 ovarian
MOLT-4 leukemia = test system: MOLT-4 leukemia
M14 melanoma = test system: M14 melanoma
UACC-257 melanoma = test system: UACC-257 melanoma
HOP-92 NSCLC = test system: HOP-92 NSCLC
NCI-H522 lung = test system: NCI-H522 lung
RPMI-8226 leukemia = test system: RPMI-8226 leukemia
MALME-3M melanoma = test system: MALME-3M melanoma
U251 CNS = test system: U251 CNS
KM12 colon = test system: KM12 colon
CCRF-CEM leukemia = test system: CCRF-CEM leukemia
NCI/ADR-RES ovarian = test system: NCI/ADR-RES ovarian
SK-MEL-2 melanoma = test system: SK-MEL-2 melanoma
UO-31 renal = test system: UO-31 renal
HCT-15 colon = test system: HCT-15 colon
NCI-H226 lung = test system: NCI-H226 lung
MDA-MB-435 = test system: MDA-MB-435
SK-MEL-5 melanoma = test system: SK-MEL-5 melanoma
T-47D breast = test system: T-47D breast
EKVX NSCLC = test system: EKVX NSCLC
A549 NSCLC = test system: A549 NSCLC
SN12C renal = test system: SN12C renal
SK-MEL-28 melanoma = test system: SK-MEL-28 melanoma
SF-268 CNS = test system: SF-268 CNS
HS 578T breast = test system: HS 578T breast
COLO 205 colon = test system: COLO 205 colon
K-562 leukemia = test system: K-562 leukemia
NCI-H23 lung = test system: NCI-H23 lung
BT-549 breast = test system: BT-549 breast
LOX IMVI melanoma = test system: LOX IMVI melanoma
DU-145 prostate = test system: DU-145 prostate
ACHN renal = test system: ACHN renal
HCT-116 colon = test system: HCT-116 colon
SNB-19 CNS = test system: SNB-19 CNS
786-0 renal = test system: 786-0 renal
HOP-62 NSCLC = test system: HOP-62 NSCLC

How did the GI50 (IGROV1 ovarian) turn out when `C=CCCCCCCCCCCC1(O)C=CC2=[N+](CCCCCN=C(N)N)CCCN21` (stereo not drawn) was run?
Its GI50 is 10.9 µM.

And the TGI (IGROV1 ovarian)?
Its TGI is 30.1 µM.

What about the GI50 (RXF 393 renal) of the same compound?
The GI50 was 3.19 µM.

And the TGI (RXF 393 renal)?
Its TGI is 19.3 µM.

What about the GI50 (MCF7 breast) of the same compound?
The GI50 was 12.3 µM.

And the TGI (MCF7 breast)?
The TGI was 40.8 µM.

And the GI50 (SK-OV-3 ovarian)?
Its GI50 is 19.1 µM.

And the TGI (SK-OV-3 ovarian)?
Its TGI is 38.5 µM.

And the GI50 (TK-10 renal)?
Its GI50 is 1.33 µM.

And the TGI (TK-10 renal)?
The TGI was 4.56 µM.

What about the GI50 (PC-3 prostate) of the same compound?
Its GI50 is 0.466 µM.

And the TGI (PC-3 prostate)?
The TGI was 6.39 µM.

What about the GI50 (SNB-75 CNS) of the same compound?
Its GI50 is 8.62 µM.

What about the TGI (SNB-75 CNS) of the same compound?
The TGI was 25.9 µM.

What about the GI50 (OVCAR-8 ovarian) of the same compound?
Its GI50 is 7.24 µM.

What about the TGI (OVCAR-8 ovarian) of the same compound?
The TGI was 26.1 µM.

And the GI50 (SF-539 CNS)?
Its GI50 is 2.84 µM.

And the TGI (SF-539 CNS)?
Its TGI is 7.71 µM.

And the GI50 (HCC-2998 colon)?
Its GI50 is 2.66 µM.

What about the TGI (HCC-2998 colon) of the same compound?
The TGI was 24.6 µM.

What about the GI50 (UACC-62 melanoma) of the same compound?
The GI50 was 13.3 µM.

And the TGI (UACC-62 melanoma)?
The TGI was 28.9 µM.

And the GI50 (SF-295 CNS)?
Its GI50 is 7.2 µM.

And the TGI (SF-295 CNS)?
The TGI was 24.9 µM.

What about the GI50 (SW-620 colon) of the same compound?
Its GI50 is 8.11 µM.

And the TGI (SW-620 colon)?
The TGI was 24.2 µM.

And the GI50 (NCI-H460 lung)?
Its GI50 is 4.38 µM.

What about the TGI (NCI-H460 lung) of the same compound?
Its TGI is 19.9 µM.

What about the GI50 (HT29 colon) of the same compound?
Its GI50 is 3.87 µM.

What about the TGI (HT29 colon) of the same compound?
Its TGI is 22.7 µM.

What about the GI50 (OVCAR-4 ovarian) of the same compound?
Its GI50 is 4.84 µM.

And the TGI (OVCAR-4 ovarian)?
The TGI was 19.9 µM.

And the GI50 (OVCAR-3 ovarian)?
Its GI50 is 13 µM.

And the TGI (OVCAR-3 ovarian)?
The TGI was 36.8 µM.

What about the GI50 (MDA-MB-231 breast) of the same compound?
The GI50 was 9.98 µM.

And the TGI (MDA-MB-231 breast)?
Its TGI is 30.2 µM.

What about the GI50 (CAKI-1 renal) of the same compound?
The GI50 was 3.22 µM.

What about the TGI (CAKI-1 renal) of the same compound?
Its TGI is 14.1 µM.

What about the GI50 (OVCAR-5 ovarian) of the same compound?
The GI50 was 6.25 µM.

What about the TGI (OVCAR-5 ovarian) of the same compound?
Its TGI is 20.8 µM.

And the GI50 (MOLT-4 leukemia)?
The GI50 was 4.4 µM.

And the TGI (MOLT-4 leukemia)?
The TGI was 20.4 µM.

What about the GI50 (M14 melanoma) of the same compound?
Its GI50 is 22.8 µM.

And the TGI (M14 melanoma)?
The TGI was > 51.5 µM.

What about the GI50 (UACC-257 melanoma) of the same compound?
Its GI50 is 22.7 µM.

What about the TGI (UACC-257 melanoma) of the same compound?
Its TGI is > 55.7 µM.

What about the TGI (HOP-92 NSCLC) of the same compound?
The TGI was 0.759 µM.

And the GI50 (NCI-H522 lung)?
The GI50 was 3.6 µM.

And the TGI (NCI-H522 lung)?
The TGI was 18.4 µM.

What about the GI50 (RPMI-8226 leukemia) of the same compound?
Its GI50 is 2.61 µM.

And the TGI (RPMI-8226 leukemia)?
The TGI was 29.5 µM.

What about the GI50 (MALME-3M melanoma) of the same compound?
The GI50 was 2.52 µM.

What about the TGI (MALME-3M melanoma) of the same compound?
Its TGI is 10.9 µM.

And the GI50 (U251 CNS)?
Its GI50 is 1.49 µM.

And the TGI (U251 CNS)?
Its TGI is 13.9 µM.

What about the GI50 (KM12 colon) of the same compound?
The GI50 was 3.42 µM.

What about the TGI (KM12 colon) of the same compound?
Its TGI is 18.7 µM.

What about the GI50 (CCRF-CEM leukemia) of the same compound?
The GI50 was 8.57 µM.

What about the TGI (CCRF-CEM leukemia) of the same compound?
The TGI was 40.3 µM.

What about the GI50 (NCI/ADR-RES ovarian) of the same compound?
Its GI50 is 22.2 µM.

And the TGI (NCI/ADR-RES ovarian)?
The TGI was 85.6 µM.

What about the GI50 (SK-MEL-2 melanoma) of the same compound?
Its GI50 is 21.3 µM.

What about the TGI (SK-MEL-2 melanoma) of the same compound?
Its TGI is 47.2 µM.

And the GI50 (UO-31 renal)?
Its GI50 is 17 µM.

And the TGI (UO-31 renal)?
Its TGI is 36.5 µM.

And the GI50 (HCT-15 colon)?
The GI50 was 4.87 µM.

And the TGI (HCT-15 colon)?
The TGI was 18.6 µM.

What about the GI50 (NCI-H226 lung) of the same compound?
The GI50 was 3.86 µM.

And the TGI (NCI-H226 lung)?
Its TGI is 21 µM.

What about the GI50 (MDA-MB-435) of the same compound?
The GI50 was 12.3 µM.

And the TGI (MDA-MB-435)?
Its TGI is 31.1 µM.

And the GI50 (SK-MEL-5 melanoma)?
The GI50 was 9.93 µM.

And the TGI (SK-MEL-5 melanoma)?
Its TGI is 25.1 µM.

What about the GI50 (T-47D breast) of the same compound?
The GI50 was 22 µM.

And the TGI (T-47D breast)?
Its TGI is 55.6 µM.

What about the GI50 (EKVX NSCLC) of the same compound?
Its GI50 is 10.8 µM.

What about the TGI (EKVX NSCLC) of the same compound?
Its TGI is 26.7 µM.

And the GI50 (A549 NSCLC)?
Its GI50 is 5.06 µM.

And the TGI (A549 NSCLC)?
The TGI was 24.6 µM.

And the TGI (SN12C renal)?
Its TGI is 11.3 µM.

And the GI50 (SK-MEL-28 melanoma)?
Its GI50 is 13.6 µM.

And the TGI (SK-MEL-28 melanoma)?
The TGI was 31.8 µM.

And the GI50 (SF-268 CNS)?
Its GI50 is 7.7 µM.

What about the TGI (SF-268 CNS) of the same compound?
Its TGI is 26.7 µM.

What about the GI50 (HS 578T breast) of the same compound?
Its GI50 is 3.82 µM.

And the TGI (HS 578T breast)?
The TGI was 13.1 µM.

What about the GI50 (COLO 205 colon) of the same compound?
The GI50 was 2.78 µM.

What about the TGI (COLO 205 colon) of the same compound?
Its TGI is 13.9 µM.

What about the GI50 (K-562 leukemia) of the same compound?
Its GI50 is 2.76 µM.

And the TGI (K-562 leukemia)?
Its TGI is 15.9 µM.

And the GI50 (NCI-H23 lung)?
The GI50 was 12.9 µM.

What about the TGI (NCI-H23 lung) of the same compound?
The TGI was 32.3 µM.

And the GI50 (BT-549 breast)?
Its GI50 is 3.56 µM.

And the TGI (BT-549 breast)?
The TGI was 13.2 µM.

And the GI50 (LOX IMVI melanoma)?
The GI50 was 6.3 µM.

And the TGI (LOX IMVI melanoma)?
The TGI was 26 µM.

What about the GI50 (DU-145 prostate) of the same compound?
The GI50 was 12.2 µM.

And the TGI (DU-145 prostate)?
Its TGI is 26.6 µM.

What about the GI50 (ACHN renal) of the same compound?
Its GI50 is 11.5 µM.

And the TGI (ACHN renal)?
Its TGI is 24.5 µM.

And the GI50 (HCT-116 colon)?
The GI50 was 12.4 µM.

And the TGI (HCT-116 colon)?
Its TGI is > 45.2 µM.

And the GI50 (SNB-19 CNS)?
Its GI50 is 5.86 µM.

What about the TGI (SNB-19 CNS) of the same compound?
Its TGI is 30.4 µM.

What about the GI50 (786-0 renal) of the same compound?
The GI50 was 7.47 µM.

And the TGI (786-0 renal)?
Its TGI is 29.8 µM.

And the GI50 (HOP-62 NSCLC)?
Its GI50 is 8.68 µM.

What about the TGI (HOP-62 NSCLC) of the same compound?
Its TGI is 32 µM.
